Source: the NIST ThermoML archive (doi:10.1016/j.fluid.2014.03.017)
Numbers after ± are expanded uncertainties.

Assay: molar heat capacity at constant pressure
Conditions: Liquid, Flow calorimetry

## CCOC(F)(F)C(F)(F)C(F)(F)C(F)(F)F [1-ethoxy-1,1,2,2,3,3,4,4,4-nonafluorobutane]
245.62 K, 100 kPa
  molar heat capacity at constant pressure: 307.66 ± 12 J/K/mol
245.63 K, 10000 kPa
  molar heat capacity at constant pressure: 295.52 ± 12 J/K/mol
245.64 K, 5000 kPa
  molar heat capacity at constant pressure: 299.74 ± 12 J/K/mol
245.64 K, 15000 kPa
  molar heat capacity at constant pressure: 286.54 ± 11 J/K/mol
254.42 K, 100 kPa
  molar heat capacity at constant pressure: 317.7 ± 13 J/K/mol
254.44 K, 5000 kPa
  molar heat capacity at constant pressure: 310.04 ± 12 J/K/mol
254.44 K, 10000 kPa
  molar heat capacity at constant pressure: 305.81 ± 12 J/K/mol
254.44 K, 15000 kPa
  molar heat capacity at constant pressure: 297.89 ± 12 J/K/mol
264.28 K, 100 kPa
  molar heat capacity at constant pressure: 328.53 ± 13 J/K/mol
264.29 K, 10000 kPa
  molar heat capacity at constant pressure: 319.55 ± 13 J/K/mol
264.3 K, 5000 kPa
  molar heat capacity at constant pressure: 321.66 ± 13 J/K/mol
264.3 K, 15000 kPa
  molar heat capacity at constant pressure: 307.4 ± 12 J/K/mol
274.14 K, 100 kPa
  molar heat capacity at constant pressure: 337.24 ± 13 J/K/mol
274.16 K, 10000 kPa
  molar heat capacity at constant pressure: 328.26 ± 13 J/K/mol
274.17 K, 5000 kPa
  molar heat capacity at constant pressure: 332.49 ± 13 J/K/mol
274.17 K, 15000 kPa
  molar heat capacity at constant pressure: 318.23 ± 13 J/K/mol
283.97 K, 100 kPa
  molar heat capacity at constant pressure: 343.58 ± 14 J/K/mol
283.98 K, 10000 kPa
  molar heat capacity at constant pressure: 340.67 ± 14 J/K/mol
283.99 K, 5000 kPa
  molar heat capacity at constant pressure: 338.83 ± 13 J/K/mol
283.99 K, 15000 kPa
  molar heat capacity at constant pressure: 333.02 ± 13 J/K/mol
293.9 K, 100 kPa
  molar heat capacity at constant pressure: 365.5 ± 15 J/K/mol
293.92 K, 10000 kPa
  molar heat capacity at constant pressure: 356.52 ± 14 J/K/mol
293.93 K, 5000 kPa
  molar heat capacity at constant pressure: 360.75 ± 15 J/K/mol
293.93 K, 15000 kPa
  molar heat capacity at constant pressure: 344.64 ± 14 J/K/mol
303.85 K, 100 kPa
  molar heat capacity at constant pressure: 373.69 ± 15 J/K/mol
303.85 K, 10000 kPa
  molar heat capacity at constant pressure: 364.71 ± 15 J/K/mol
303.86 K, 5000 kPa
  molar heat capacity at constant pressure: 368.93 ± 15 J/K/mol
303.86 K, 15000 kPa
  molar heat capacity at constant pressure: 356.52 ± 14 J/K/mol
313.79 K, 100 kPa
  molar heat capacity at constant pressure: 389.8 ± 16 J/K/mol
313.9 K, 10000 kPa
  molar heat capacity at constant pressure: 377.91 ± 15 J/K/mol
313.91 K, 5000 kPa
  molar heat capacity at constant pressure: 385.04 ± 15 J/K/mol
313.91 K, 15000 kPa
  molar heat capacity at constant pressure: 369.2 ± 15 J/K/mol
323.6 K, 100 kPa
  molar heat capacity at constant pressure: 393.76 ± 16 J/K/mol
323.62 K, 10000 kPa
  molar heat capacity at constant pressure: 384.78 ± 15 J/K/mol
323.63 K, 5000 kPa
  molar heat capacity at constant pressure: 389 ± 16 J/K/mol
323.63 K, 15000 kPa
  molar heat capacity at constant pressure: 384.51 ± 15 J/K/mol
333.28 K, 100 kPa
  molar heat capacity at constant pressure: 407.23 ± 16 J/K/mol
333.29 K, 5000 kPa
  molar heat capacity at constant pressure: 402.47 ± 16 J/K/mol
333.29 K, 10000 kPa
  molar heat capacity at constant pressure: 398.25 ± 16 J/K/mol
333.29 K, 15000 kPa
  molar heat capacity at constant pressure: 399.04 ± 16 J/K/mol
343.51 K, 100 kPa
  molar heat capacity at constant pressure: 419.9 ± 17 J/K/mol
343.52 K, 10000 kPa
  molar heat capacity at constant pressure: 410.92 ± 16 J/K/mol
343.53 K, 5000 kPa
  molar heat capacity at constant pressure: 414.88 ± 17 J/K/mol
343.53 K, 15000 kPa
  molar heat capacity at constant pressure: 407.49 ± 16 J/K/mol
353.61 K, 100 kPa
  molar heat capacity at constant pressure: 431.79 ± 17 J/K/mol
353.62 K, 10000 kPa
  molar heat capacity at constant pressure: 422.81 ± 17 J/K/mol
353.63 K, 5000 kPa
  molar heat capacity at constant pressure: 426.77 ± 17 J/K/mol
353.63 K, 15000 kPa
  molar heat capacity at constant pressure: 420.43 ± 17 J/K/mol

## CCOC(F)(C(F)(F)C(F)(F)C(F)(F)F)C(F)(C(F)(F)F)C(F)(F)F (centres undefined) [2-trifluoromethyl-3-ethoxydodecafluorohexane]
248.45 K, 100 kPa
  molar heat capacity at constant pressure: 309.34 ± 12 J/K/mol
248.45 K, 5000 kPa
  molar heat capacity at constant pressure: 304.79 ± 12 J/K/mol
248.45 K, 10000 kPa
  molar heat capacity at constant pressure: 300.64 ± 12 J/K/mol
248.45 K, 15000 kPa
  molar heat capacity at constant pressure: 300.23 ± 12 J/K/mol
254.4 K, 100 kPa
  molar heat capacity at constant pressure: 329.22 ± 13 J/K/mol
254.4 K, 5000 kPa
  molar heat capacity at constant pressure: 325.49 ± 13 J/K/mol
254.4 K, 10000 kPa
  molar heat capacity at constant pressure: 320.94 ± 13 J/K/mol
254.4 K, 15000 kPa
  molar heat capacity at constant pressure: 319.28 ± 13 J/K/mol
264.24 K, 100 kPa
  molar heat capacity at constant pressure: 362.35 ± 14 J/K/mol
264.24 K, 5000 kPa
  molar heat capacity at constant pressure: 358.21 ± 14 J/K/mol
264.24 K, 10000 kPa
  molar heat capacity at constant pressure: 354.07 ± 14 J/K/mol
264.24 K, 15000 kPa
  molar heat capacity at constant pressure: 351.17 ± 14 J/K/mol
273.51 K, 100 kPa
  molar heat capacity at constant pressure: 393.82 ± 16 J/K/mol
273.51 K, 5000 kPa
  molar heat capacity at constant pressure: 390.92 ± 16 J/K/mol
273.51 K, 10000 kPa
  molar heat capacity at constant pressure: 387.19 ± 15 J/K/mol
273.51 K, 15000 kPa
  molar heat capacity at constant pressure: 380.98 ± 15 J/K/mol
283.77 K, 100 kPa
  molar heat capacity at constant pressure: 428.61 ± 17 J/K/mol
283.77 K, 5000 kPa
  molar heat capacity at constant pressure: 428.19 ± 17 J/K/mol
283.77 K, 10000 kPa
  molar heat capacity at constant pressure: 426.12 ± 17 J/K/mol
283.77 K, 15000 kPa
  molar heat capacity at constant pressure: 414.53 ± 17 J/K/mol
294.36 K, 100 kPa
  molar heat capacity at constant pressure: 470.02 ± 19 J/K/mol
294.36 K, 5000 kPa
  molar heat capacity at constant pressure: 463.8 ± 19 J/K/mol
294.36 K, 10000 kPa
  molar heat capacity at constant pressure: 461.73 ± 19 J/K/mol
294.36 K, 15000 kPa
  molar heat capacity at constant pressure: 456.35 ± 18 J/K/mol
304.12 K, 100 kPa
  molar heat capacity at constant pressure: 490.31 ± 19 J/K/mol
304.12 K, 5000 kPa
  molar heat capacity at constant pressure: 485.34 ± 19 J/K/mol
304.12 K, 10000 kPa
  molar heat capacity at constant pressure: 484.1 ± 19 J/K/mol
304.12 K, 15000 kPa
  molar heat capacity at constant pressure: 476.23 ± 19 J/K/mol
313.92 K, 100 kPa
  molar heat capacity at constant pressure: 531.72 ± 21 J/K/mol
313.92 K, 5000 kPa
  molar heat capacity at constant pressure: 528.41 ± 21 J/K/mol
313.92 K, 10000 kPa
  molar heat capacity at constant pressure: 526.75 ± 21 J/K/mol
313.92 K, 15000 kPa
  molar heat capacity at constant pressure: 516.81 ± 21 J/K/mol
323.65 K, 100 kPa
  molar heat capacity at constant pressure: 565.26 ± 23 J/K/mol
323.65 K, 5000 kPa
  molar heat capacity at constant pressure: 559.05 ± 22 J/K/mol
323.65 K, 10000 kPa
  molar heat capacity at constant pressure: 547.87 ± 22 J/K/mol
323.65 K, 15000 kPa
  molar heat capacity at constant pressure: 543.31 ± 22 J/K/mol
333.47 K, 100 kPa
  molar heat capacity at constant pressure: 587.21 ± 24 J/K/mol
333.47 K, 5000 kPa
  molar heat capacity at constant pressure: 578.1 ± 23 J/K/mol
333.47 K, 10000 kPa
  molar heat capacity at constant pressure: 571.47 ± 23 J/K/mol
333.47 K, 15000 kPa
  molar heat capacity at constant pressure: 565.68 ± 23 J/K/mol
343.39 K, 100 kPa
  molar heat capacity at constant pressure: 629.04 ± 25 J/K/mol
343.39 K, 5000 kPa
  molar heat capacity at constant pressure: 620.75 ± 25 J/K/mol
343.39 K, 10000 kPa
  molar heat capacity at constant pressure: 612.88 ± 24 J/K/mol
343.39 K, 15000 kPa
  molar heat capacity at constant pressure: 606.67 ± 24 J/K/mol
353.38 K, 100 kPa
  molar heat capacity at constant pressure: 669.2 ± 27 J/K/mol
353.38 K, 5000 kPa
  molar heat capacity at constant pressure: 656.78 ± 26 J/K/mol
353.38 K, 10000 kPa
  molar heat capacity at constant pressure: 653.88 ± 26 J/K/mol
353.38 K, 15000 kPa
  molar heat capacity at constant pressure: 649.74 ± 26 J/K/mol

## O [water]
294.2 K, 10000 kPa
  molar heat capacity at constant pressure: 73.7 ± 3 J/K/mol
294.24 K, 100 kPa
  molar heat capacity at constant pressure: 74.96 ± 3 J/K/mol
294.24 K, 5000 kPa
  molar heat capacity at constant pressure: 74.89 ± 3 J/K/mol
294.27 K, 15000 kPa
  molar heat capacity at constant pressure: 74.67 ± 3 J/K/mol
303.93 K, 100 kPa
  molar heat capacity at constant pressure: 75.43 ± 3 J/K/mol
303.97 K, 5000 kPa
  molar heat capacity at constant pressure: 75.34 ± 3 J/K/mol
303.97 K, 15000 kPa
  molar heat capacity at constant pressure: 76.01 ± 3 J/K/mol
303.98 K, 10000 kPa
  molar heat capacity at constant pressure: 75.05 ± 3 J/K/mol
313.68 K, 100 kPa
  molar heat capacity at constant pressure: 76.44 ± 3.1 J/K/mol
313.68 K, 10000 kPa
  molar heat capacity at constant pressure: 75.93 ± 3 J/K/mol
313.69 K, 5000 kPa
  molar heat capacity at constant pressure: 76.02 ± 3 J/K/mol
313.69 K, 15000 kPa
  molar heat capacity at constant pressure: 75.83 ± 3 J/K/mol
323.43 K, 100 kPa
  molar heat capacity at constant pressure: 76.28 ± 3 J/K/mol
323.43 K, 5000 kPa
  molar heat capacity at constant pressure: 75.84 ± 3 J/K/mol
323.43 K, 10000 kPa
  molar heat capacity at constant pressure: 75.47 ± 3 J/K/mol
323.43 K, 15000 kPa
  molar heat capacity at constant pressure: 74.96 ± 3 J/K/mol
333.33 K, 100 kPa
  molar heat capacity at constant pressure: 75.9 ± 3 J/K/mol
333.33 K, 5000 kPa
  molar heat capacity at constant pressure: 75.47 ± 3 J/K/mol
333.33 K, 10000 kPa
  molar heat capacity at constant pressure: 75.23 ± 3 J/K/mol
333.33 K, 15000 kPa
  molar heat capacity at constant pressure: 75.11 ± 3 J/K/mol
343.28 K, 100 kPa
  molar heat capacity at constant pressure: 76.31 ± 3.1 J/K/mol
343.28 K, 5000 kPa
  molar heat capacity at constant pressure: 75.95 ± 3 J/K/mol
343.28 K, 10000 kPa
  molar heat capacity at constant pressure: 75.29 ± 3 J/K/mol
343.28 K, 15000 kPa
  molar heat capacity at constant pressure: 75.07 ± 3 J/K/mol
353.25 K, 5000 kPa
  molar heat capacity at constant pressure: 75.84 ± 3 J/K/mol
353.25 K, 10000 kPa
  molar heat capacity at constant pressure: 75.63 ± 3 J/K/mol
353.25 K, 15000 kPa
  molar heat capacity at constant pressure: 75.25 ± 3 J/K/mol
353.26 K, 100 kPa
  molar heat capacity at constant pressure: 76.04 ± 3 J/K/mol
